These are literature values, as cited in paper PMC11170759, “Advancing Parkinson’s Disease Diagnostics: The Potential of Arylpyrazolethiazole Derivatives for Imaging α-Synuclein Aggregates” (ACS Omega, 2024).

SMILES strings stand for the structures.

By Kd is commonly meant a measure of binding affinity in units of concentration.

The test system of one series is α-synuclein aggregates. More on the design: method as in PMID 34577548. The note with it: literature ligand of Figure 1; cited from earlier work.
Another series has as its target α-syn fibrils. More on the design: method as in PMID 33369690. Conditions: saturation binding, recombinant fibrils; cited from earlier work.
A further series has as its target Aβ1-42 fibrils. Further details: method as in PMID 33369690. The note with it: saturation binding, recombinant fibrils; read-out: Kd Aβ1-42 (reported); cited from earlier work.

Regarding `c1ccc(-c2ccc(C3CC(c4ccc5c(c4)OCO5)=NN3)o2)cc1` (stereo not drawn) [8b], the “reduction of ThT fluorescence” value in the series with α-synuclein aggregates is listed as 94%.
For the compound `CN(C)c1ccc(-c2cc(-c3ccnc(Br)c3)[nH]n2)cc1` [MODAG-001], the equilibrium dissociation constant (Kd) on α-syn fibrils is 0.6 ± 0.1 nM; on Aβ1-42 fibrils, 20 ± 10 nM.
